Reference: US9006451B1, “2-anilinonicotinyl based chalcones useful as potential anticancer agents and process for preparation thereof” (Council of Scientific and Industrial Research, priority 2013, dated 2015)

Tests used:
HL-60(TB) = assay: NCI 60 human tumor cell line screen (SRB): HL-60(TB); assay type: cell-based; settings: Leukemia, 48 hours, read-out: GI50 values (μM conc.)
Method: (§1) The in vitro anticancer activity studies for these chalcone analogues were carried out at the National Cancer Institute, USA.
(§2) The chalcone compounds have been tested at NCI, USA, against sixty human tumor cell lines derived from nine cancer types (leukemia, non-small cell lung cancer, colon cancer, CNS cancer, melanoma cancer, ovarian cancer, renal cancer, prostate cancer and breast cancer). For these compounds results are expressed as growth inhibition (GI50) values as per NCI protocol.
(§3) We describe here the development and implementation of a pilot-scale, in vitro, anticancer drug screen utilizing a panel of 60 human tumor cell lines organized into subpanels representing leukemia, melanoma, and cancers of the lung, colon, kidney, ovary, and central nervous system. The ultimate goal of this disease-oriented screen is to facilitate the discovery of new compounds with potential cell line-specific and/or subpanel-specific antitumor activity. In the current screening protocol, each cell line is inoculated onto microtiter plates, then preincubated for 28 hours. Subsequently, test agents are added in five 10-fold dilutions and the culture is incubated for an additional 48 hours. For each test agent, a dose-response profile is generated. End-point determinations of the cell viability or cell growth are performed by in situ fixation of cells, followed by staining with a protein-binding dye, sulforhodamine B (SRB). The SRB binds to the basic amino acids of cellular macromolecules; the solubilized stain is measured spectrophotometrically to determine relative cell growth or viability in treated and untreated cells.

K-562 = assay: NCI 60 human tumor cell line screen (SRB): K-562; assay type: cell-based; settings: K562, K-562, Leukemia, 48 hours, read-out: GI50 values (μM conc.)
Method: as §1, §2
as §3, with “For each test agent, a dose-response profile is generated. End-point determinations of the cell viability or cell growth are performed by in situ fixation of cells, followed by staining with a protein-binding dye, sulforhodamine B (SRB).” left out

Row | Structure (SMILES) | GI50 (HL-60(TB)) [µM] | melting point [°C] | GI50 (K-562) [µM]
1 | COc1cc(/C=C/C(=O)c2cccnc2Nc2ccc(F)cc2)cc(OC)c1OC [7f, (E)-1-(2-(4-Fluorophenylamino)pyridin-3-yl)-3-(3,4,5-trimethoxyphenyl)prop-2-en-1-one] | 2.4 | – | –
2 | COc1cc(C(=O)/C=C/c2cccnc2Nc2ccc(Cl)cc2)cc(OC)c1OC [6ax, (E)-3-(2-(4-Chlorophenylamino)pyridin-3-yl)-1-(3,4,5-trimethoxyphenyl)prop-2-en-1-one] | 1.59 | – | –
3 | COc1cc(C(=O)/C=C/c2cccnc2Nc2ccccc2)cc(OC)c1OC [6a, (E)-3-(2-(Phenylamino)pyridin-3-yl)-1-(3,4,5-trimethoxyphenyl)prop-2-en-1-one] | 1.52 | 125 to 128 | –
4 | COc1ccc(Nc2ncccc2/C=C/C(=O)c2cc(OC)c(OC)c(OC)c2)cc1 [6h, (E)-3-(2-(4-Methoxyphenylamino)pyridin-3-yl)-1-(3,4,5-trimethoxyphenyl)prop-2-en-1-one] | – | – | 0.78
5 | COc1ccc(C(=O)/C=C/c2cccnc2Nc2cc(OC)c(OC)c(OC)c2)cc1 [6z, (E)-1-(4-Methoxyphenyl)-3-(2-(3,4,5-trimethoxyphenylamino)pyridin-3-yl)prop-2-en-1-one] | 1.27 | – | –
6 | COc1cc(Nc2ncccc2/C=C/C(=O)c2cc(OC)c(OC)c(OC)c2)cc(OC)c1OC [6v, (E)-1-(3,4,5-Trimethoxyphenyl)-3-(2-(3,4,5-trimethoxyphenylamino)pyridin-3-yl)prop-2-en-1-one] | 8 | – | –
